In patent US12637424B2, “Pharmaceutical salt of an arylpyrrole derivative” (SENTINEL ONCOLOGY LIMITED, priority 2020, dated 2026):

How the values were obtained:
[1] = molecular target: T1, panel of ninety-seven kinases (Homo sapiens, UniProt O14920); assay: DiscoverX KinomeScreen competition binding assay (kinase selectivity panel); conditions: IKBKB; screened at 3000 nM
T1 construct: purchased DiscoverX; host or cells: E. coli (BL21-derived, T7 phage display) or HEK-293
In short: (§1)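 Kinases on T7 phage (BL21-derived E. coli host) or DNA-tagged from HEK-293 cells compete between compound and a bead-immobilized biotinylated ligand. Captured kinase is eluted and quantified by qPCR. Compound is tested at 3000 nM (3 μM); binding is reported as % Ctrl, with DMSO as 100% and control compound as 0%.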

[2] = molecular target: T2, panel of ninety-seven kinases (Homo sapiens, UniProt Q15303); assay: as above; conditions: ERBB4; screened at 3000 nM
T2 construct: purchased DiscoverX; host or cells: E. coli (BL21-derived, T7 phage display) or HEK-293
In short: as §1

[3] = molecular target: T3, panel of ninety-seven kinases (Homo sapiens, UniProt Q8IYT8); assay: as above; conditions: ULK2; screened at 3000 nM
T3 construct: purchased DiscoverX; host or cells: E. coli (BL21-derived, T7 phage display) or HEK-293
In short: as §1

[4] = molecular target: T4, panel of ninety-seven kinases (Homo sapiens, UniProt P35968); assay: as above; conditions: KDR; screened at 3000 nM
T4 construct: purchased DiscoverX; host or cells: E. coli (BL21-derived, T7 phage display) or HEK-293
T4 sequence (P35968 20-1356): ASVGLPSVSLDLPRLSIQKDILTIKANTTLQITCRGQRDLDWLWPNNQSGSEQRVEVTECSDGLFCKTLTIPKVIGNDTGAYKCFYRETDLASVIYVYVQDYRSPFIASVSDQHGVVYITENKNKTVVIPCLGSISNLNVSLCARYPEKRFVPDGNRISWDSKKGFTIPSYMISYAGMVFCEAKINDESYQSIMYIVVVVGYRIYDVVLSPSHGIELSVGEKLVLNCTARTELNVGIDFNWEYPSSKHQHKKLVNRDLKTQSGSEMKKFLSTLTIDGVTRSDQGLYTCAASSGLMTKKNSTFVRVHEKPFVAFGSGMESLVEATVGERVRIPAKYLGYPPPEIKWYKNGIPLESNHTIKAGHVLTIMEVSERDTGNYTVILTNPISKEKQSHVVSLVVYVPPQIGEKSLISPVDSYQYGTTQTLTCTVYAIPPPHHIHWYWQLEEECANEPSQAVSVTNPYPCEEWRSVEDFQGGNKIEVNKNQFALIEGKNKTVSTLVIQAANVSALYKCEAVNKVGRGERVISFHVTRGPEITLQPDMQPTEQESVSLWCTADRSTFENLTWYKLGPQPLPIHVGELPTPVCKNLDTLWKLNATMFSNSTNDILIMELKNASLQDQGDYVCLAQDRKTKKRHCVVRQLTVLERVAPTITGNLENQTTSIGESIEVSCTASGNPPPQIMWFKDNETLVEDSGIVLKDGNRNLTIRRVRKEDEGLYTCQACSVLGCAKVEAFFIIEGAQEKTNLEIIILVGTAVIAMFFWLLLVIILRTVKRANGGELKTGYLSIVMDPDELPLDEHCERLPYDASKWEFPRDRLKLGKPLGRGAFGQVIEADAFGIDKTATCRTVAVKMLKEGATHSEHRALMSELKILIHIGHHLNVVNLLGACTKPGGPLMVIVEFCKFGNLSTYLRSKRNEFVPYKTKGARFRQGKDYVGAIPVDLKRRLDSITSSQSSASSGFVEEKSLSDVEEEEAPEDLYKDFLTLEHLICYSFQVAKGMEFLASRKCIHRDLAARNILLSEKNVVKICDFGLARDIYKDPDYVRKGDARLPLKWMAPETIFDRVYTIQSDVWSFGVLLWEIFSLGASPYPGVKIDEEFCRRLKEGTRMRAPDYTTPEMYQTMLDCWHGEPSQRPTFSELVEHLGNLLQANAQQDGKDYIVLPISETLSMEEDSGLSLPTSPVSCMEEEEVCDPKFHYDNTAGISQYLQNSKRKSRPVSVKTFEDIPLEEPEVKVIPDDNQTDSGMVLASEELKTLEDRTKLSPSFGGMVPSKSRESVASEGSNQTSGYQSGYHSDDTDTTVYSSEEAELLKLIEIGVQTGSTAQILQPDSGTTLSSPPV
In short: as §1

[5] = molecular target: T5, panel of ninety-seven kinases (Homo sapiens, UniProt P53779); assay: as above; conditions: MAPK10; screened at 3000 nM
T5 construct: purchased DiscoverX; host or cells: E. coli (BL21-derived, T7 phage display) or HEK-293
T5 sequence (P53779 whole entry): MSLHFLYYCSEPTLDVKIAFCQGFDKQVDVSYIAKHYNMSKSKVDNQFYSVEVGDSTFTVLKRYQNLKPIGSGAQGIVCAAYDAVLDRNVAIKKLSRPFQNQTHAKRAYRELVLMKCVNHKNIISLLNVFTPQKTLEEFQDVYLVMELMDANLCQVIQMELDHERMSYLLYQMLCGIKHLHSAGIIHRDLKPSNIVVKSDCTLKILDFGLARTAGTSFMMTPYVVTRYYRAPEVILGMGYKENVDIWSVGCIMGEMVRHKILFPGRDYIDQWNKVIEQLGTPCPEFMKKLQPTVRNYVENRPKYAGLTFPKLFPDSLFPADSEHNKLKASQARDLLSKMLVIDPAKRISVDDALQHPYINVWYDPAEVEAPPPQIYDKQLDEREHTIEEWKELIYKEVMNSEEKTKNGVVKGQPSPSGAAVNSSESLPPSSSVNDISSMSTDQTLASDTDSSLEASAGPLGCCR
In short: as §1

[6] = molecular target: T6, panel of ninety-seven kinases (Homo sapiens, UniProt P27361); assay: as above; conditions: MAPK3; screened at 3000 nM
T6 construct: purchased DiscoverX; host or cells: E. coli (BL21-derived, T7 phage display) or HEK-293
In short: as §1

[7] = molecular target: T7, panel of ninety-seven kinases (Homo sapiens, UniProt Q05397); assay: as above; conditions: PTK2; screened at 3000 nM
T7 construct: purchased DiscoverX; host or cells: E. coli (BL21-derived, T7 phage display) or HEK-293
T7 sequence (Q05397 whole entry): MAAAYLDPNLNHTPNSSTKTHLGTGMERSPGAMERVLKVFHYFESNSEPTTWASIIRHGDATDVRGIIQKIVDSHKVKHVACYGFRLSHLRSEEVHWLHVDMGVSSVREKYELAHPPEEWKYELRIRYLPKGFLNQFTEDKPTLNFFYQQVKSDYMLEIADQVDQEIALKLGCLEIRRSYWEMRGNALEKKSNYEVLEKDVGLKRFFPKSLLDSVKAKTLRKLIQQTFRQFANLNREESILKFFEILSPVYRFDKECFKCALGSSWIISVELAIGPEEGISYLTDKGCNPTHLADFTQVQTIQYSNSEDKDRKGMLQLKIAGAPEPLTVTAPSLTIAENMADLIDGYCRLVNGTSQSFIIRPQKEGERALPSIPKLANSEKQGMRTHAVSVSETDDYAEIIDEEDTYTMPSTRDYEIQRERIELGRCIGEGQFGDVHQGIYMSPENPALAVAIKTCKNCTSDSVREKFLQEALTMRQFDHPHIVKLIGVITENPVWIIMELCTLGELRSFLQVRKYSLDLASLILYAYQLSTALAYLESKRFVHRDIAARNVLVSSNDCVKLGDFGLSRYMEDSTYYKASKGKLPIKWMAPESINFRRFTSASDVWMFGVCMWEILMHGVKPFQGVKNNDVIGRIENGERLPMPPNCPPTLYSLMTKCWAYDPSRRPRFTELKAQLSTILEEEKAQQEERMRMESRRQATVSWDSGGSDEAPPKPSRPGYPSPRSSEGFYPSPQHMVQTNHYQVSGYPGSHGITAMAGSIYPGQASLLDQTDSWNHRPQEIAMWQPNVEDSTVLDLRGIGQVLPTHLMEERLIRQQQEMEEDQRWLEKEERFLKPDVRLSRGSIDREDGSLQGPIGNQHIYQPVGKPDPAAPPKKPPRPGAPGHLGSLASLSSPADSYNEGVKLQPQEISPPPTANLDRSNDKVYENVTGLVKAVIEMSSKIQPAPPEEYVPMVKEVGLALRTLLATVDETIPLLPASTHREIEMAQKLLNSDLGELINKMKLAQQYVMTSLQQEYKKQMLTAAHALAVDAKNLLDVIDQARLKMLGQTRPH
In short: as §1

[8] = molecular target: T8, panel of ninety-seven kinases (Homo sapiens, UniProt P27448); assay: as above; conditions: MARK3; screened at 3000 nM
T8 construct: purchased DiscoverX; host or cells: E. coli (BL21-derived, T7 phage display) or HEK-293
In short: as §1

[9] = molecular target: T9, panel of ninety-seven kinases (Homo sapiens, UniProt P45984); assay: as above; conditions: MAPK9; screened at 3000 nM
T9 construct: purchased DiscoverX; host or cells: E. coli (BL21-derived, T7 phage display) or HEK-293
In short: as §1

[10] = molecular target: T10, panel of ninety-seven kinases (Homo sapiens, UniProt P06213); assay: as above; conditions: INSR; screened at 3000 nM
T10 construct: purchased DiscoverX; host or cells: E. coli (BL21-derived, T7 phage display) or HEK-293
In short: as §1

[11] = molecular target: T11, panel of ninety-seven kinases (Homo sapiens, UniProt P21802); assay: as above; conditions: FGFR2; screened at 3000 nM
T11 construct: purchased DiscoverX; host or cells: E. coli (BL21-derived, T7 phage display) or HEK-293
T11 sequence (P21802 22-821): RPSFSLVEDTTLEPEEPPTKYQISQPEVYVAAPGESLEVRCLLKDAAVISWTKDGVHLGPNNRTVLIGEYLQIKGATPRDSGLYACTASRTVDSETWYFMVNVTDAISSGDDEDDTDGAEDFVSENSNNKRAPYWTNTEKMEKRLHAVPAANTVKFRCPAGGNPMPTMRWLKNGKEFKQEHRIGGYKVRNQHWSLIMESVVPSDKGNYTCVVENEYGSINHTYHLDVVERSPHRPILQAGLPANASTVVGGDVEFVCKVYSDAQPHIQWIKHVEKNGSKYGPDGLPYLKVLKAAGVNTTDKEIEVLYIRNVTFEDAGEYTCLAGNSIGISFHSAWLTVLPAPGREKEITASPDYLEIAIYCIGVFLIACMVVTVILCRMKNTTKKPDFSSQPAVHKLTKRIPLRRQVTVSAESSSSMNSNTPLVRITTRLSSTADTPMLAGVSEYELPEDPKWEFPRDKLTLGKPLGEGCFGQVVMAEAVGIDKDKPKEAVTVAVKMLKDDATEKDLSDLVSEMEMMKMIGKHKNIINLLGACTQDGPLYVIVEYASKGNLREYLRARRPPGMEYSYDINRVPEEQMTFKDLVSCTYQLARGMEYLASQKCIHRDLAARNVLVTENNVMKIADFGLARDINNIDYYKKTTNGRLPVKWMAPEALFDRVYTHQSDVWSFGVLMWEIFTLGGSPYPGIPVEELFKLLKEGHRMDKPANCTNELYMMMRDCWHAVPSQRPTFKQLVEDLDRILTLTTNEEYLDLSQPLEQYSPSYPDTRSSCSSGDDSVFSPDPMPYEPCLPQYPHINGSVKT
In short: as §1

[12] = molecular target: T12, panel of ninety-seven kinases (Homo sapiens, UniProt Q86UX6); assay: as above; conditions: STK32C; screened at 3000 nM
T12 construct: purchased DiscoverX; host or cells: E. coli (BL21-derived, T7 phage display) or HEK-293
T12 sequence (Q86UX6 whole entry): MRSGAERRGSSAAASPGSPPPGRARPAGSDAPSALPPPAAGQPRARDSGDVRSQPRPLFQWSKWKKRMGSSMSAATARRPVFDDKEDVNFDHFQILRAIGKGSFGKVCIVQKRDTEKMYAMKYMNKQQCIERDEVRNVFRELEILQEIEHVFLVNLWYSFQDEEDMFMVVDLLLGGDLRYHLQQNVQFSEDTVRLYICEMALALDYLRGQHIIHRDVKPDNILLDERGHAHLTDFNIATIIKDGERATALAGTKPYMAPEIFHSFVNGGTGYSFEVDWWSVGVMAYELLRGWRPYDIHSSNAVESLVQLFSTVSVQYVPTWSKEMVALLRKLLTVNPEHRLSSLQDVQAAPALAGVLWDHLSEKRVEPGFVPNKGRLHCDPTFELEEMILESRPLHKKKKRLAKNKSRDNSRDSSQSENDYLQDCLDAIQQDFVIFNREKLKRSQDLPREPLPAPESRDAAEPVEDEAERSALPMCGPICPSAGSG
In short: as §1

[13] = molecular target: T13, panel of ninety-seven kinases (Homo sapiens, UniProt P17612); assay: as above; conditions: PRKACA; screened at 3000 nM
T13 construct: purchased DiscoverX; host or cells: E. coli (BL21-derived, T7 phage display) or HEK-293
In short: as §1

[14] = molecular target: T14, panel of ninety-seven kinases (Homo sapiens, UniProt P36888); assay: as above; conditions: FLT3; screened at 3000 nM
T14 construct: purchased DiscoverX; host or cells: E. coli (BL21-derived, T7 phage display) or HEK-293
In short: as §1

[15] = molecular target: T15, panel of ninety-seven kinases (Homo sapiens, UniProt Q8NI60); assay: as above; conditions: CABC1; screened at 3000 nM
T15 construct: purchased DiscoverX; host or cells: E. coli (BL21-derived, T7 phage display) or HEK-293
In short: as §1

[16] = molecular target: T16, panel of ninety-seven kinases (Homo sapiens, UniProt P42336); assay: as above; conditions: PIK3CA; screened at 3000 nM
T16 construct: purchased DiscoverX; host or cells: E. coli (BL21-derived, T7 phage display) or HEK-293
In short: as §1

[17] = molecular target: T17, panel of ninety-seven kinases (Homo sapiens, UniProt Q00536); assay: as above; conditions: CDK16; screened at 3000 nM
T17 construct: purchased DiscoverX; host or cells: E. coli (BL21-derived, T7 phage display) or HEK-293
In short: as §1

[18] = molecular target: T18, panel of ninety-seven kinases (Homo sapiens, UniProt Q96GD4); assay: as above; conditions: AURKB; screened at 3000 nM
T18 construct: purchased DiscoverX; host or cells: E. coli (BL21-derived, T7 phage display) or HEK-293
T18 sequence (Q96GD4 whole entry): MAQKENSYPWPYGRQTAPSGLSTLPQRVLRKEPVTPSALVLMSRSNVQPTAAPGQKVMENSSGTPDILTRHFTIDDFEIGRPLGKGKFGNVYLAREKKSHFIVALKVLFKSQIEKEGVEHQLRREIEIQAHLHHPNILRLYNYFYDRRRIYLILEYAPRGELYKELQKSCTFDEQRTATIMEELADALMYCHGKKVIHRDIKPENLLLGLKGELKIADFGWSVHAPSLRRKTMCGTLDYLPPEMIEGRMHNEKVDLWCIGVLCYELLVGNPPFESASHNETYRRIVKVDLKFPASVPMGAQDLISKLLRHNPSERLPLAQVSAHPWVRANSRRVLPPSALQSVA
In short: as §1

[19] = molecular target: T19, panel of ninety-seven kinases (Homo sapiens, UniProt Q02750); assay: as above; conditions: MAP2K1; screened at 3000 nM
T19 construct: purchased DiscoverX; host or cells: E. coli (BL21-derived, T7 phage display) or HEK-293
In short: as §1

PLK1 (catalytic domain) = molecular target: T20, PLK1 (catalytic domain) (Homo sapiens, UniProt P53350); assay: DiscoverX KinomeScreen competition binding assay
T20 construct: purchased DiscoverX; host or cells: E. coli (BL21-derived, T7 phage display) or HEK-293
T20 sequence (P53350 53-305 limits assumed): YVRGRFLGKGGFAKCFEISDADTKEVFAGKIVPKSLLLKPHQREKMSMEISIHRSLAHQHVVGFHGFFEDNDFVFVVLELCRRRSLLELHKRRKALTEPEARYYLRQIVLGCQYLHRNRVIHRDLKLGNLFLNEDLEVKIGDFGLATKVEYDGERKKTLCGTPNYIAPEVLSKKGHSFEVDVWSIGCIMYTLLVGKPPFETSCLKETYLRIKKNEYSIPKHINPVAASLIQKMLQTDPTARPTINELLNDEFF
Experimental: (§2) This has been investigated by testing atropisomer A-2 for off-target activity against a panel of ninety-seven kinases distributed across the kinome at a concentration of 3 μM using the DiscoverX KinomeScreen assay. The DiscoverX KinomeScreen assay is a site-directed competition binding assay which measures the binding affinity of a compound to a kinase, by use of a solid supported control compound which can bind or capture the kinases in solution. In the absence of a kinase-inhibitor test compound, all of the kinase will bind to the solid support. If a kinase-inhibitor test compound is added to the assay mix, the amount of kinase binding to the solid support will be reduced, the extent of reduction being dependent on the potency of the test compound as a kinase inhibitor. […] For most assays, kinase-tagged T7 phage strains were grown in parallel in 24-well blocks in an E. coli host derived from the BL21 strain. E. coli were grown to log-phase and infected with T7 phage from a frozen stock (multiplicity of infection=0.4) and incubated with shaking at 32° C. until lysis (90-150 minutes). The lysates were centrifuged (6,000×g) and filtered (0.2 μm) to remove cell debris. The remaining kinases were produced in HEK-293 cells and subsequently tagged with DNA for qPCR detection. Streptavidin-coated magnetic beads were treated with biotinylated small molecule ligands for 30 minutes at room temperature to generate affinity resins for kinase assays. The liganded beads were blocked with excess biotin and washed with blocking buffer (SeaBlock (Pierce), 1% BSA, 0.05% Tween 20, 1 mM DTT) to remove unbound ligand and to reduce non-specific phage binding. […] Test compounds were prepared as 40× stocks in 100% DMSO and directly diluted into the assay. All reactions were performed in polypropylene 384-well plates in a final volume of 0.02 ml. […] The beads were then re-suspended in elution buffer (1×PBS, 0.05% Tween 20, 0.5 μM non-biotinylated affinity ligand) and incubated at room temperature with shaking for 30 minutes. The kinase concentration in the eluates was measured by qPCR. Compounds that bind the kinase active site and directly (sterically) or indirectly (allosterically) prevent kinase binding to the immobilized ligand, will reduce the amount of kinase captured on the solid support. […] The strength of binding of the test molecule to the kinase can be expressed as the percent control (% Ctrl) The compound(s) were screened at 3000 nM concentration, and results for primary screen binding interactions are reported as ‘% Ctrl’, where lower numbers indicate stronger hits in the matrix on the following page(s). [formula] • negative control=DMSO (100% Ctrl) • positive control=control compound (0% Ctrl)

PLK4 (catalytic domain) = molecular target: T21, PLK4 (catalytic domain) (Homo sapiens, UniProt O00444); assay: DiscoverX KinomeScreen competition binding assay
T21 construct: purchased DiscoverX; host or cells: E. coli (BL21-derived, T7 phage display) or HEK-293
T21 sequence (O00444 12-265 limits assumed): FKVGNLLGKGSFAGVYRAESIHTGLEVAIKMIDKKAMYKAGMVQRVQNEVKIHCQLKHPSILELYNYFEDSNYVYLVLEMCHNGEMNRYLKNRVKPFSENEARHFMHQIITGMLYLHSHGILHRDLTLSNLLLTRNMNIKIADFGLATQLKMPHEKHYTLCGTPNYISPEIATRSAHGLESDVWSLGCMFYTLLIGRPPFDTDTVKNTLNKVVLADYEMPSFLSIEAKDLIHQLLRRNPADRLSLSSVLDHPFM
Experimental: as §2

[20] = 3 μM (3000 nM), lower = stronger binding, read-out: % Control

CN(C)CCNC(=O)c1ccc(-c2ccc(-c3ccc(Cl)cc3)n2-c2ccccc2C(F)(F)F)cc1 (single isomer, unassigned) [Atropisomer A-2]
% Ctrl @ 3 μM [1]: 96 % Ctrl | % Ctrl @ 3 μM [2]: 99 % Ctrl | % Ctrl @ 3 μM [3]: 93 % Ctrl | % Ctrl @ 3 μM [4]: 100 % Ctrl | % Ctrl @ 3 μM [5]: 93 % Ctrl | % Ctrl @ 3 μM [6]: 99 % Ctrl | % Ctrl @ 3 μM [7]: 98 % Ctrl | % Ctrl @ 3 μM [8]: 100 % Ctrl | % Ctrl @ 3 μM [9]: 80 % Ctrl | % Ctrl @ 3 μM [10]: 100 % Ctrl | % Ctrl @ 3 μM [11]: 85 % Ctrl | % Ctrl @ 3 μM [12]: 100 % Ctrl | % Ctrl @ 3 μM [13]: 100 % Ctrl | % Ctrl @ 3 μM [14]: 100 % Ctrl | % Ctrl @ 3 μM [15]: 63 % Ctrl | % Ctrl @ 3 μM [16]: 100 % Ctrl | % Ctrl @ 3 μM [17]: 100 % Ctrl | % Ctrl @ 3 μM [18]: 84 % Ctrl | % Ctrl @ 3 μM [19]: 84 % Ctrl | remaining binding at 3 µM (PLK1 (catalytic domain); [20]): 97% | % Ctrl @ 3 μM (PLK1 (catalytic domain); PLK1, screened at 3000 nM): 97 % Ctrl | remaining binding at 3 µM (PLK4 (catalytic domain); [20]): 100% | % Ctrl @ 3 μM (PLK4 (catalytic domain); PLK4, screened at 3000 nM): 100 % Ctrl
